Patent US20260069590A1, “METHOD FOR TREATING NONTUBERCULOUS MYCOBACTERIAL INFECTION” (priority 2022, published 2026)

Assays:
M. abscessus strain 103 = experiment: Mouse model of M. abscessus in the SCID mouse; type: in vivo; details: treatment end
M. avium = experiment: Minimum inhibitory concentration, microbroth dilution, presence and absence of CF sputum; type: cell-based; details: Mycobacterium avium, M. avium B18101968; + SP (10% CF sputum)
Description: Minimum inhibitory concentration (MIC) testing was performed by microbroth dilution method using Mueller Hinton (MH) broth (Cation Adjusted) to the calcium and magnesium ion concentration recommended in the CLSI standard M7-A7 (Becton Dickinson). MIC testing also was performed by microbroth dilution method using 7H9 broth (Sigma-Aldrich). […] M. abscessus was grown on 7H11 agar plates (Sigma-Aldrich) for 3 days at 35-37° C. in ambient air (depending on bacterial strain), and M. avium was grown on agar 7H11 plates (Sigma-Aldrich) for 21-30 days at 37° C. in ambient air.
The colony forming units (CFUs) are taken from the agar plates and placed in either MH or 7H9 broth with 0.05% tween-80 and grown at 35-37° C. in ambient air until the optical density (OD) absorbance taken after 3 days (M. abscessus) or 12 (M. avium) of growth is an (OD) 0.08-0.1 (0.5 McFarland Standard). The bacterial cell suspensions are then confirmed by preparing them in saline, matching the (OD) 0.08-0.1 (0.5 McFarland Standard). […]
Minimum inhibitory concentrations assays were performed as described above. […] The MIC of the Composition of Example 1 was measured following the same CLSI protocol as described above, in the presence and absence of cystic fibrosis patient sputum. […]

[1] = system: M. avium strain 2285 rough; experiment: Acute mouse model of M. avium infection in the Beige mouse; type: in vivo; details: treatment end, Oral 20 mg/kg every other day from day 7
M. avium 2285 rough = experiment: Chronic Beige mouse model; type: in vivo, Beige mice; details: Day 57, Oral 20 mg/kg, 14 treatments every other day from Day 28
[2] = Plasma toxicokinetics, 28-day inhalation study in dogs; details: Beagle, dog, in vivo, inhaled or intranasal
Description: The animals were studied for a period of 84 days.
All GLP canine study activities were performed by Lovelace Biomedical Research Institute (LBRI) under an IACUC approved protocol. Five groups of Beagle dogs were divided into study groups (Table 1) and exposed once daily by face-mask inhalation to filtered air (Group 1), vehicle (Group 2-0.5% polysorbate in saline), or CIS (Groups 3-5) for 28 consecutive days. The Low, Mid, and High doses (Groups 3, 4, and 5) were exposed to an average aerosol concentration of 0.209 mg/L for 30 min, 60 min and 120 min, respectively. The 28-day exposure period was followed by 28- and 56-day no exposure recovery periods (Recovery Study, Study Day (SD) 56 and 84 respectively). Blood was collected for toxicokinetic (TK) analysis from animals after both the first day of dose administration (Day 1; (0.5 hours (±5 minutes), 6 hours (±30 minutes), 12 hours (±30 minutes), 24 hours (±1 hour)), the last day of dose administration (SD28), and at […], SD56 and SD84, as indicated in Table 1. Main Study animals were necropsied one day post final exposure (SD29), while two male and two female Recovery Study animals were each necropsied on SD56 and SD84.
Aerosolized CIS was delivered to each dog by way of a 6-port aerosol exposure system using three Micro Mist compressed air jet nebulizers. (Supplementary Figure S1) All animals were conditioned to the face masks and restraint system before study. The exposure system and aerosol characteristics of the API and vehicle, including target aerosol concentration, concentration homogeneity, concentration repeatability, and aerosol size distribution were confirmed by LBRI prior to study. Dosing for each dog was measured for every dose delivered throughout study and calculated against individual dog weights.
Blood samples were immediately processed or held on wet ice for no more than 2 hours (hr) before being processed to plasma by centrifugation (1300 g, 2-8° C., ≥10 minutes), with plasma separated into appropriately labeled vials and stored frozen (−70 to −90° C.) until CFZ analysis.
Main study animals (3M/3F per timepoint) had blood samples collected at the following timepoints post-exposure on SD1 and SD28: 0.5 hr (±5 minutes), 6.0 hr (±30 minutes), 12 hr (±30 minutes), and 24 hr (±1 hr). Recovery animals (2M/2F per Recovery timepoint) from each group had blood collected on SD42, and prior to euthanasia on SD56 or SD84. The sample size for each group, sex, and timepoint is described in Table 1. Actual collection times were documented, and all animals in this study underwent scheduled sampling at their respective timepoints.
Retention time and peak area were determined by Analyst® Data Acquisition/Processing Software (Version 1.6.3). Analyte concentrations were obtained from a calibration curve constructed by plotting the peak area versus the nominal concentration using Analyst.
Clinical observations were descriptive while numerical evaluations (means and standard deviations) were used for all other parameters where possible. Toxicokinetic parameters were estimated for blood plasma using Phoenix WinNonlin version 8.3 software (Certara L.P.) with a non-compartmental analysis (NCA) consistent with aerosol administration (extravascular model) on each subject at each timepoint. NCA was only performed if there were quantifiable concentrations at two consecutive timepoints. Concentration values below the lower limit of quantitation of 2.00 ng/ml for plasma were labeled as below quantitative limits (BQL). These BQL values were treated as missing and excluded from calculation of descriptive statistics and toxicokinetic analysis.
Concentrations were used with full precision to three significant figures as received from bioanalytical data.

[3] = Lung and other tissue toxicokinetics, 28-day inhalation study in dogs; details: Beagle, in vivo, inhaled or intranasal, dog lung, SD29 to SD84, read-out: lung terminal elimination half-life (converted)
Source text: Clofazimine was extracted by protein precipitation from dog plasma.

clinical = details: human, plasma, inhaled
Description: (§2) For placebo, subjects were treated with a nebulized sterile, isotonic saline solution consisting of 0.9% wt/v sodium chloride. […] The doses were administered by inhalation with a Pari e-Flow nebulizer system to investigate tolerability and pharmacokinetics (PK) in healthy human subjects. The subjects were monitored for any life-threatening or severe adverse events and samples of their blood were taken for analysis.
(§3) Participants resided at the clinical research unit until day 5 post-dose, during which time they were evaluated for safety and samples were collected for PK assessment. Participants returned on days 8 and 15 for additional safety assessments and sample collection. […] Participants resided at the clinical research unit until day 8 post-dose, during which time they were evaluated for safety and samples were collected for PK assessment. Participants returned on days 15 and 36 for additional safety assessments and sample collection.

[4] = BCS class II drug; cited from earlier work
[5] = cited from earlier work
[6] = Pharmacokinetics of clofazimine delivered by nebulization in healthy subjects
Description: as §2, §3

[7] = Safety and tolerability of clofazimine delivered by nebulization in healthy subjects; details: inhaled, nebulized
Description: as §2, §3

A549 = experiment: Effects of surfactants on cell viability, MTT assay; type: cell-based, human; details: 1% in HBSS, positive control
Description: (§1) Effects of surfactants on cell viability study: The effects of a surfactant such as polysorbate 80 (PS 80) containing various fatty acids components were used in this study to determine their effect on cell viability in the lungs upon administration of composition for lung delivery. In vitro experiments were carried out using three different human cell lines, i.e., human cell lines A549 (type II pulmonary epithelial cell derived), hAELVi, (human alveolar epithelial cell) and Calu-3 (lung adenocarcinoma cell). The cell lines were obtained from ATCC (Bethesda, MD) and maintained as recommended by the provider and seeded and incubated for the 24 hour test in 96-well plates containing 4×10^4/well in RPMI 1640 medium (Gibco). For testing, the medium as aspirated, the cells were washed twice with Hank's balanced Salt Solution (HBSS) at pH 7.4 and a 0.2 ml sample solution containing a surfactant was added to the cells. HBSS was used as negative control as well as HBSS containing 1% TritonX-100 as positive control. Surfactants under study were two, a super-refined grade PS 80 comprising a mixture of various fatty acid esters of about 70% to 85% total content being oleic acid and having other components including, mystiric, palmitic, palmitoleic, stearic, linoleic and linolenic acid esters. This super-refined PS 80 (Tween® 80, A) manufactured by Mallinckrodt Baker or Merck, and a second PS 80 (B, NOF Corporation) comprising an oleic acid component of about 99% were tested. In the experiments to determine the in vitro IC50 values, the cell lines were exposed to equal concentrations of the two surfactants in HBSS solution at the same concentrations and several dilutions of the test compounds after incubation for 4 hours at 37° C. with shaking, washed with HBSS. Cell viability was assessed based on the absorbance measurements at 550 nm obtained using the MTT assay as described in Metz et al., J. ALTEX, Jan. 29, 2020: V.2 doi:10.14573/altex.1910231. FIGS. 8 and 9, and Table 16 illustrate data obtained from the experiments.

Calu-3 = experiment: as above; type: cell-based, human; details: 1% in HBSS, positive control
Description: as §1

hAELVi = experiment: as above; type: cell-based, human; details: 1% in HBSS, positive control
Description: as §1

NCC[C@H](O)C(=O)N[C@@H]1C[C@H](N)[C@@H](O[C@H]2O[C@H](CN)[C@@H](O)[C@H](O)[C@H]2O)[C@H](O)[C@H]1O[C@H]1O[C@H](CO)[C@@H](O)[C@H](N)[C@H]1O [Amikacin, amikacin]
Liver Log10 CFU ± SEM (M. abscessus strain 103; SQ 150 mg/kg every other day): 3.07 ± 0.10 Log10 CFU | Lung Log10 CFU ± SEM (M. abscessus strain 103; SQ 150 mg/kg every other day): 3.94 ± 0.11 Log10 CFU | Spleen Log10 CFU ± SEM (M. abscessus strain 103; SQ 150 mg/kg every other day): 4.37 ± 0.31 Log10 CFU

CC(C)/N=c1\cc2n(-c3ccc(Cl)cc3)c3ccccc3nc-2cc1Nc1ccc(Cl)cc1 [Clofazimine, N,5-bis(4-chlorophenyl)-3-propan-2-yliminophenazin-2-amine]
MIC (M. avium): > 2 µg/mL | Liver Log10 CFU ± SEM (M. abscessus strain 103; Oral 20 mg/kg every other day): 4.78 ± 0.18 Log10 CFU | Lung Log10 CFU ± SEM (M. abscessus strain 103; Oral 20 mg/kg every other day): 3.33 ± 0.17 Log10 CFU | Spleen Log10 CFU ± SEM (M. abscessus strain 103; Oral 20 mg/kg every other day): 3.79 ± 0.10 Log10 CFU | Liver Log10 CFU ± SEM [1]: 3.01 ± 0.03 Log10 CFU | Lung Log10 CFU ± SEM [1]: 3.95 ± 0.03 Log10 CFU | Spleen Log10 CFU ± SEM [1]: 3.14 ± 0.03 Log10 CFU | Liver Log10 CFU ± SEM (M. avium 2285 rough): 4.07 ± 0.04 Log10 CFU | Lung Log10 CFU ± SEM (M. avium 2285 rough): 5.94 ± 0.12 Log10 CFU | Spleen Log10 CFU ± SEM (M. avium 2285 rough): 3.08 ± 0.04 Log10 CFU | half-life ([2]; female, 0.74 mg/kg): 8.99 h | half-life ([2]; female, 1.48 mg/kg): 9.43 h | half-life ([2]; female, 2.52 mg/kg): 7.23 h | half-life ([2]; male, 0.68 mg/kg): 7.19 h | half-life ([2]; male, 1.36 mg/kg): 8.95 h | half-life ([2]; male, 2.72 mg/kg): 7.89 h | half-life ([3]; female, 2.95 mg/kg, Low dose females): 262 h | half-life ([3]; male, 5.45 mg/kg, Mid dose males): 239 h | half-life ([3]; male, 10.87 mg/kg, High dose males): 475 h | half-life (clinical): 290 h | solubility in water [4]: practically insoluble in water | absorption in humans after oral administration [5]: 45-62% | time to peak plasma concentrations ([6]; repeated administration, inhaled 30 or 90 mg daily for seven days): 2 to 12 h | time to peak plasma concentrations ([6]; single administration, inhaled 30, 60, 90 mg): 4 to 8 h | increase in AUC0-24 ([6]; single administration, dose increase of 1.5-fold): 1.6 fold | increase in AUC0-24 ([6]; single administration, dose increase of 2-fold): 2.3 fold | Columbia Suicide Severity Rating Scale (C-SSRS) [7]: no suicidal ideation or behavior | ECG results [7]: no abnormal, clinically significant electrocardiogram | skin discoloration [7]: no evidence of skin discoloration

Triton X-100
cell viability (A549): loss all viability | cell viability (Calu-3): loss all viability | cell viability (hAELVi): loss all viability
